{"source": "patent US20250255882A1", "about": "“TREATMENT OF CARDIAC CONDITION RELATED COGNITIVE DYSFUNCTION” (The Trustees of Columbia University in the City of New York, priority 2024, published 2025)", "key": {"[1]": {"tested_on": "MI mice", "assay": "hippocampal FDG metabolism by microPET", "assay_type": "in vivo, mouse", "details": "treated MI mice; percentage of the FDG uptake in the SHAM mice (SHAM 100±3, MI 70±3)", "description": "(§1) FIG. 4A is a schematic representation of a hippocampal brain slice for LTP experiments and the positioning of the stimulating and recording electrodes.\nThereafter, [^18F]fluorodeoxyglucose (FDG) with positron emission tomography (PET) was used to measure energy consumption in neurons, which reflects neuronal communication signals and the integrative local neuronal activity. Deteriorating brain glucose metabolism measured by FDG-PET has been used as a clinical marker for Alzheimer's disease diagnosis. Thus, hippocampal FDG metabolism was evaluated in the experimental groups (FIGS. 4E and 4F)."}, "[2]": {"assay": "blood-brain barrier crossing"}, "[3]": {"tested_on": "MI mice", "assay": "long-term potentiation (fEPSPs) in hippocampal slices", "assay_type": "in vivo, mouse", "details": "slices from treated MI mice; MI decreased LTP versus SHAM", "method": "as §1\nField excitatory postsynaptic potentials (fEPSPs) were evaluated at the Schaffer collateral using a bipolar electrode placed at the CA3 and recording at the CA1 (FIG. 4A). […] Importantly, MI and treatment with the various compounds after MI had no effect on basal synaptic transmission determined by the input-output curves (I-O; P=0.5; FIG. 4D)."}, "[4]": {"tested_on": "TGF-β pathway", "assay": "immunoblots of TGF-β, phosphorylated SMAD3 and NOX2 binding to RyR2 in hippocampi", "assay_type": "in vivo, mouse", "details": "hippocampi of treated MI mice", "description": "FIG. 12A includes immunoblots showing expressing levels of TGF-β, phosphorylated SMAD3, total SMAD3, and NOX2 binding to RyR2 in the hippocampi of controls (n=4) and HF patients (n=9). FIG. 12B includes bar graphs depicting the ratio of TGF-β expression normalized to GAPDH, phosphorylated SMAD3 to total SMAD3 and NOX2 binding to RyR2 (IP RyR2). The same quantity of proteins was loaded on two separate gels and blotted separately for SMAD3 and pSMAD3. Individual values are shown with mean±SEM (t-test * p<0.05, Controls vs. HF patients). […] FIG. 12D includes bar graphs depicting the ratio of TGF-β expression normalized to GAPDH, phosphorylated SMAD3 to total SMAD3 and NOX2 binding to RyR2 (IP RyR2). The same quantity of proteins was loaded on two separate gels and blotted separately for SMAD3 and pSMAD3. Individual values are shown with mean±SEM. […] All statistical tests were two-sided. Data are derived from biologically independent samples.\nTGF-β has been implicated in CNS disorders including Alzheimer's disease."}, "[5]": {"tested_on": "adrenergic pathway", "assay": "hippocampal norepinephrine levels and PKA activity", "assay_type": "in vivo, mouse", "details": "treated versus untreated MI mice", "method": "The hippocampal levels of norepinephrine and PKA activity were measured."}, "[6]": {"tested_on": "mouse model of HF (myocardial infarction, MI)", "assay": "novel object recognition test (hippocampal-dependent short-term memory)", "assay_type": "in vivo", "details": "MI mice, treated; MI 15%±4%, SHAM 48%±5%", "description": "(§2) One-way analysis of variance (ANOVA) was used to compare the difference between the six groups in FIGS. 2B, 2C, 2E and 2F. Tukey's test was used for multiple comparisons; two-way ANOVA was used in FIG. 2D. […] All statistical tests were two sided with the data derived from biologically independent samples.\nNext, a novel object recognition test was used to evaluate hippocampal-dependent short-term memory. (see Liu, X. et al. Role of leaky neuronal ryanodine receptors in stress-induced cognitive dysfunction. Cell 150, 1055-1067 (2012); and Bevins, R. A. & Besheer, J. Object recognition in rats and mice: a one-trial non-matching-to-sample learning task to study ‘recognition memory’. Nat. Protoc. 1, 1306-1311 (2006))."}, "[7]": {"tested_on": "mouse model of HF (myocardial infarction, MI)", "assay": "MWM test (long-term spatial learning and memory) with probe trial", "assay_type": "in vivo", "details": "MI mice, treated; for latency to find and reach the hidden platform: day 4 training trials, MI 30±1 s, SHAM 21±2 s", "method": "as §2\nA MWM test was performed to assess hippocampal-dependent long-term spatial learning and memory.\nA probe trial was performed on day 5 of the MWM test."}, "[8]": {"tested_on": "mouse model of HF (myocardial infarction, MI)", "assay": "open field test and elevated plus maze (EPM) test", "assay_type": "in vivo", "details": "MI mice, treated", "description": "as §2, with “FIGS. 2A-2G illustrate a mouse model of heart failure (myocardial infarction) that is associated with cognitive dysfunction. […] One-way” for “One-way”\nBecause of the complexity of the clinical manifestation of HF patients, the mouse model of HF (myocardial infarction, MI) was used with reduced ejection fraction to evaluate the mechanisms of CD. The open field test and elevated plus maze (EPM) test were used to evaluate the behavioral phenotypes, and spontaneous exploratory activity in the mice. In the open field test, mice were placed at the center of a chamber and allowed to explore for 6 min. […] In the EPM test, MI mice spent […] time in the open arms of the EPM (FIG. 2B) compared to SHAM (0.22±0.04 versus 0.14±0.02; P<0.05). […] As a control, the effects of a Rycal®, ARM036, was studied."}, "[9]": {"target": "RyR2 (Homo sapiens, UniProt Q92736)", "details": "previously identified binding site; cited from earlier work"}, "[10]": {"target": "RyR2 (Mus musculus, UniProt E9Q401)", "sequence (E9Q401 whole entry)": "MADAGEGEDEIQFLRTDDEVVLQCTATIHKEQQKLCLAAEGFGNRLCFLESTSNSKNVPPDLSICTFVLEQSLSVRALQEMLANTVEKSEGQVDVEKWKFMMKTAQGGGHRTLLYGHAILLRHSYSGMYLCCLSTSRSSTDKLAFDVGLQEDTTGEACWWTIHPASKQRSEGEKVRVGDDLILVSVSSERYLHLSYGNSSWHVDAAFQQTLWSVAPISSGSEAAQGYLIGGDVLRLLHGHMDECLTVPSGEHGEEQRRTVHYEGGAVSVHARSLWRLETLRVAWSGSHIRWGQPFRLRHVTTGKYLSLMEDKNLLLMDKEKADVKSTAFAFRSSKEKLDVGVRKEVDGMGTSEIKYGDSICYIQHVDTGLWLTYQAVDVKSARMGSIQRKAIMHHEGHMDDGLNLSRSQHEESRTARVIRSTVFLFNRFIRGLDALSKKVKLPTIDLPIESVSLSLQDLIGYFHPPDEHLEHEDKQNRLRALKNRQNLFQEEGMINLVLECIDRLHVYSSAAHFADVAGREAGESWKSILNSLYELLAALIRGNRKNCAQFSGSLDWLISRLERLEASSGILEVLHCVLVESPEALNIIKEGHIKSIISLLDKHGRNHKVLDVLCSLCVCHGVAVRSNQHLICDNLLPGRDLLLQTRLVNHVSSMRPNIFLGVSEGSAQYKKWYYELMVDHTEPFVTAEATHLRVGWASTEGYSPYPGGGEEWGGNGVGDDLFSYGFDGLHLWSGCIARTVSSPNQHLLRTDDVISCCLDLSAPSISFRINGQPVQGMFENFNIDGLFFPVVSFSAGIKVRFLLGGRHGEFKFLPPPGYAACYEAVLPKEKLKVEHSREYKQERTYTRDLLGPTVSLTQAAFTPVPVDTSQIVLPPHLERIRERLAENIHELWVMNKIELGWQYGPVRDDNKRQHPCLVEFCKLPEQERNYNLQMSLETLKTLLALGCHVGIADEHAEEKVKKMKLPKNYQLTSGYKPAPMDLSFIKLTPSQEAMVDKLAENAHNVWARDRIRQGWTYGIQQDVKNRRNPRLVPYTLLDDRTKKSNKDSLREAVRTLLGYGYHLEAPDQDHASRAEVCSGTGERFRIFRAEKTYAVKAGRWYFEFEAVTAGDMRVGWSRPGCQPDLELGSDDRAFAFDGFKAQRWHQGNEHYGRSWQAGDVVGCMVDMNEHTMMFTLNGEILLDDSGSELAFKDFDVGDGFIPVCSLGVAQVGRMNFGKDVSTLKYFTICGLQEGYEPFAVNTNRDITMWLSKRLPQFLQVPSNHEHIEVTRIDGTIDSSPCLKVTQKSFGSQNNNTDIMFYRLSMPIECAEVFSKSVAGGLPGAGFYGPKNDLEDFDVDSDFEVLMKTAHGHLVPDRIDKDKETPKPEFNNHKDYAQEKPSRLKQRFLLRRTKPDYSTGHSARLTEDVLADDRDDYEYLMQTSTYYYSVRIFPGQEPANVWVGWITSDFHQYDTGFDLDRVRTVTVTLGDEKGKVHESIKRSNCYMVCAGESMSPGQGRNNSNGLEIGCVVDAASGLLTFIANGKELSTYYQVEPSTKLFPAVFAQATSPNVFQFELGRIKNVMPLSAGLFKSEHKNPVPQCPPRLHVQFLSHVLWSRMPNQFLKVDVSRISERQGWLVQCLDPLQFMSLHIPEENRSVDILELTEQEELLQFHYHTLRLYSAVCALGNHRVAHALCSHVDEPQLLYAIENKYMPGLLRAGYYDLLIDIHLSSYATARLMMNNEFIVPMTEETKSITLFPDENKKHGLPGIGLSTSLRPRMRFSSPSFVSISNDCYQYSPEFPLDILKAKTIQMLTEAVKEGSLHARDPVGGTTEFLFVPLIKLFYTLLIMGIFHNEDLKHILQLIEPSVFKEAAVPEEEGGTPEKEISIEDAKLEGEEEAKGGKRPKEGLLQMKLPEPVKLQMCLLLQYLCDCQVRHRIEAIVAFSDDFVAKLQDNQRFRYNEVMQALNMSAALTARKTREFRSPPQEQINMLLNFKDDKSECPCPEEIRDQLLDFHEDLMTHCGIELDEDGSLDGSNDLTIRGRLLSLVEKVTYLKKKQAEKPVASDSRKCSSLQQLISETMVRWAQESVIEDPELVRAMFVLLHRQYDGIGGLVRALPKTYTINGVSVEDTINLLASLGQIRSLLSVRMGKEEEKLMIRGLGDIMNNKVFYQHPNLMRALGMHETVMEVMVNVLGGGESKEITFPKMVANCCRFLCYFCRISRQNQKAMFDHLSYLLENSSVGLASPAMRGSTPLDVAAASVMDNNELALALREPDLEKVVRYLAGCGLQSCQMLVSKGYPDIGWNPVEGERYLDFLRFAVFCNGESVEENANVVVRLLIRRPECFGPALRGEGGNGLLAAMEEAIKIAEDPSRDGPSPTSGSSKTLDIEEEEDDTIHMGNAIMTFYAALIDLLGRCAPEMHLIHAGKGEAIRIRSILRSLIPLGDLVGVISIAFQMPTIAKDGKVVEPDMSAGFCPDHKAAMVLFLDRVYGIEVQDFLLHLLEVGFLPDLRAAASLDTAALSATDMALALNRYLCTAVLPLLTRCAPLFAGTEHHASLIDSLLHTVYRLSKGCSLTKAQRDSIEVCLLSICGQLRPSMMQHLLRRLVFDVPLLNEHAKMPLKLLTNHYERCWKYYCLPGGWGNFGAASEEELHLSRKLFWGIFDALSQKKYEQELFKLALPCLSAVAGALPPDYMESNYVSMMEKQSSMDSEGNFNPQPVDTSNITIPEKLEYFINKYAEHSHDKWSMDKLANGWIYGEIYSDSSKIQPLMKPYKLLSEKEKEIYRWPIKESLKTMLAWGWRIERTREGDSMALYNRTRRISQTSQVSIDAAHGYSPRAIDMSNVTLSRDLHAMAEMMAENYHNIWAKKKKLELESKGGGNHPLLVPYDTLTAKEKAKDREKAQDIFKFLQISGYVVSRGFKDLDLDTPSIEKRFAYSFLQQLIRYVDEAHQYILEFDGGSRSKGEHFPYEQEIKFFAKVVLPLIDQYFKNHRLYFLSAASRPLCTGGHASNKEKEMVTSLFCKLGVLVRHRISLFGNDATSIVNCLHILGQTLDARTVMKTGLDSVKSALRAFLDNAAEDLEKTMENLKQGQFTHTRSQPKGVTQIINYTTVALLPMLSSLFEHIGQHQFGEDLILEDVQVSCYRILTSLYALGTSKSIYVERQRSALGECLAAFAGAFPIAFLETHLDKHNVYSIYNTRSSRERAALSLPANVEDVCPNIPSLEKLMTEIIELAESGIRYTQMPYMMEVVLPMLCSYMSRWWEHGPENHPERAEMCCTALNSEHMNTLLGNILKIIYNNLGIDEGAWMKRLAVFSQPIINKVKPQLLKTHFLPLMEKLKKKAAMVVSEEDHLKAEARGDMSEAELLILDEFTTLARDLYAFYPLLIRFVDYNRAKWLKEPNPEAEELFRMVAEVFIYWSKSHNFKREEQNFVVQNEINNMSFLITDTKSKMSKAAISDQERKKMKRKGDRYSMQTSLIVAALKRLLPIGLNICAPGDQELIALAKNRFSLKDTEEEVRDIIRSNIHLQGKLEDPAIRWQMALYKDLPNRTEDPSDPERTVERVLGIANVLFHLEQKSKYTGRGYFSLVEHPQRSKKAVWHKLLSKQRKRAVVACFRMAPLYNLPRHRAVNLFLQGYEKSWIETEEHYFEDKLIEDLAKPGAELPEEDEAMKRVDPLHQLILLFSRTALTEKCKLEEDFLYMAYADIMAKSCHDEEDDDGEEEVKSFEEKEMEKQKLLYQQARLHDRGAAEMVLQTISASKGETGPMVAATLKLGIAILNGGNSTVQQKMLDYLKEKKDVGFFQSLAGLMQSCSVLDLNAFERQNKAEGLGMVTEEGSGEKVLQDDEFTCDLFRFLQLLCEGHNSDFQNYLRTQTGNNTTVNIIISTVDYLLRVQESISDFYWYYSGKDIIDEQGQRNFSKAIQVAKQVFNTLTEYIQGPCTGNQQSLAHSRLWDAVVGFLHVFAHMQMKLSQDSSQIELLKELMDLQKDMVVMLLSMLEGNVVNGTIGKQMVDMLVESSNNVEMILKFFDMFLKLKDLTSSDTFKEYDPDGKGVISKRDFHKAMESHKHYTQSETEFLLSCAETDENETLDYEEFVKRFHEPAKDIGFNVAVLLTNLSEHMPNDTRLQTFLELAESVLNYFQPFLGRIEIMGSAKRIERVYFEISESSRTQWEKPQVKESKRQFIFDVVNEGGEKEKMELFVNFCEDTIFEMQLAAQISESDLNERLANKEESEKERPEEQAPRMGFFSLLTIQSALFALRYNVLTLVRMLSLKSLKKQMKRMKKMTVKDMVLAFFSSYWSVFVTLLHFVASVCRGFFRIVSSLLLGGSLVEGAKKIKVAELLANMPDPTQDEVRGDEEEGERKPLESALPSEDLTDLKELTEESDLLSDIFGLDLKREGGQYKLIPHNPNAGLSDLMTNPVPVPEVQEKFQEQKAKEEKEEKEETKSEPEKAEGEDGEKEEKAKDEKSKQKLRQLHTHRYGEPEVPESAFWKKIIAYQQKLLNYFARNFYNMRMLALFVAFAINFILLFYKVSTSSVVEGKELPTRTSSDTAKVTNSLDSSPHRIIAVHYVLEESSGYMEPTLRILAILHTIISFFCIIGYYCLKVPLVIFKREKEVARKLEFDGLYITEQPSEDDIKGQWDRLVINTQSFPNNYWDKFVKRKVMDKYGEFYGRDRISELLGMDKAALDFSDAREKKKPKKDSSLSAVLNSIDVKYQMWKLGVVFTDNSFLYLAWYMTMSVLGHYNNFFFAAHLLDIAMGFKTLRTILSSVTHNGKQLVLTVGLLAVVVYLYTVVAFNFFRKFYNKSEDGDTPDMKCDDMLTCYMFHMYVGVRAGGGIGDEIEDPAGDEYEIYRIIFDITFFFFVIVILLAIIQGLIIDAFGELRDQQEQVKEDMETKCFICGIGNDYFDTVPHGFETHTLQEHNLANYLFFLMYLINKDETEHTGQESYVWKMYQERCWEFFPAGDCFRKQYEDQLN", "assay": "caffeine-induced Ca2+ release in primary hippocampal neurons", "assay_type": "cell-based", "set-up": "representative images of 14-d cultured hippocampal neurons stimulated with 10 mM caffeine; endogenous in cells; host or cells: primary hippocampal neurons, 14 d in culture", "details": "10 mM caffeine; hippocampal neurons treated with the adrenergic agonist alone", "method": "FIG. 5A presents representative images of 14-d cultured hippocampal neurons stimulated with 10 mM caffeine. For each condition, the Ca^2+ levels are shown at baseline, during stimulation and at recovery. […] Individual values are shown with the mean±s.e.m. […] Scale bar, 10 μm. A reduction in caffeine-induced Ca^2+ release indicates a Ca^2+ depleted ER due to persistent RyR2-mediated Ca^2+ leak. Data are derived from biologically independent samples. All statistical tests were two sided.\nTo determine whether the activation of the adrenergic pathway indeed causes neuronal RyR2-mediated ER Ca^2+ leak, caffeine (10 mM), a well characterized RyR agonist, was used to assess RyR2 function specifically in hippocampal neurons without interference of other cell types such as glial cells or astrocytes."}}, "data": [{"smiles": "COc1ccc2c(c1)CN(C(=O)C(=O)O)CCS2", "note": "[ARM036]", "values": [{"measurement": "hippocampal FDG metabolism", "setting": "[1]", "value": "80±8"}, {"measurement": "crossing of the blood-brain barrier (BBB)", "setting": "[2]", "value": "does not cross the blood-brain barrier"}, {"measurement": "LTP (hippocampal synaptic plasticity)", "setting": "[3]", "value": "no effect"}, {"measurement": "NOX2 binding to hippocampal RyR2", "setting": "[4]", "value": "no effect"}, {"measurement": "TGF-β levels", "setting": "[4]", "value": "no effect"}, {"measurement": "phosphorylation of SMAD3", "setting": "[4]", "value": "no effect"}, {"measurement": "PKA activity", "setting": "[5]", "value": "no effect"}, {"measurement": "brain norepinephrine", "setting": "[5]", "value": "no effect"}, {"measurement": "discrimination index", "setting": "[6]", "value": "15%±3%"}, {"measurement": "latency to find and reach the hidden platform", "setting": "[7]", "value": "29 ± 3", "unit": "s"}, {"measurement": "abnormal behaviors in open field test (time center versus periphery) and EPM test (time open-arm versus closed-arm)", "setting": "[8]", "value": "no effect"}]}, {"smiles": "COc1ccc2c(c1)CN(Cc1ccc(C(=O)O)cc1)CCS2", "note": "[Compound 1]", "values": [{"measurement": "effect on primed state of leaky channels", "setting": "[9]", "value": "reverse the primed state of leaky channels toward a fully closed state"}]}, {"smiles": "COc1ccc2c(c1)CN(C)CCS2", "note": "[S107]", "values": [{"measurement": "hippocampal FDG metabolism", "setting": "[1]", "value": "114±13"}, {"measurement": "crossing of the blood-brain barrier (BBB)", "setting": "[2]", "value": "BBB-permeant"}, {"measurement": "PKA activity", "setting": "[5]", "value": "no effect"}, {"measurement": "brain norepinephrine", "setting": "[5]", "value": "no effect"}, {"measurement": "target crossings", "setting": "[7]; 60-s probe trial day 5, MI 2.4±0.3, SHAM 4.6±0.3", "value": "4.2±0.3"}, {"measurement": "time spent in the target quadrant", "setting": "[7]; 60-s probe trial day 5, MI 17±1 s, SHAM 25±2 s", "value": "26 ± 2", "unit": "s"}, {"measurement": "latency to find and reach the hidden platform", "setting": "[7]", "value": "20 ± 2", "unit": "s"}]}, {"smiles": "CC(C)NCC(O)c1ccc(O)c(O)c1", "note": "(centres unmarked) [isoproterenol]", "values": [{"measurement": "caffeine-induced Ca2+ release", "setting": "[10]", "value": "small Ca^2+ release"}]}]}
